Reference: paper PMC12656329, “Specific Hepatorenal Toxicity and Cross-Species Susceptibility of Eight Representative Pesticides” (Toxics, 2025)
“Also recorded” adds a separate entry of the source. Where two headings read alike, the source gives them in different places.

Legend:
293T renal cells [1] = experiment: CCK-8 cytotoxicity assay, 293T; type: cell-based, human; details: CCK-8, 24 h exposure; for IC50: Homo sapiens, HEK-293T, 24 h
Protocol: (§1) Human embryonic kidney 293T (HEK293T) cells and rat renal NRK cells were maintained in high-glucose DMEM supplemented with 10% fetal bovine serum (FBS) and 1% penicillin–streptomycin at 37 °C under 5% CO2 until reaching 70–80%. Human liver CCC-HEL-1 cells were cultured under identical conditions but with 20% FBS, while rat normal hepatocytes were grown in high-glucose MEM containing 20% FBS and 1% penicillin–streptomycin. Stock solutions (500 g/L) of eight pesticide standards were prepared in dimethyl sulfoxide (DMSO) and stored at −20 °C. Working concentrations were freshly diluted in serum-containing culture medium prior to each experiment.
(§2) The cytotoxicity of eight pesticides on four mammalian cell lines was assessed using the Cell Counting Kit-8 (CCK-8) assay. Initially, stock solutions of each pesticide were prepared by dissolving the compound in dimethyl sulfoxide (DMSO) to a final concentration of 500 g/L. For the assay, cells were seeded into 96-well plates at a density of 2 × 10^4 cells per well in 100 µL of medium and incubated for 24 h at 37 °C under a 5% CO2 atmosphere to allow for attachment. Subsequently, the culture medium was replaced with fresh medium containing the pesticides at a series of final concentrations (0, 10, 100, 200, 400, 800, 1000, and 2500 mg/L). Pesticide working concentrations were prepared through serial dilution of the 500 g/L DMSO stock solution, resulting in variable final DMSO concentrations across treatment groups (ranging from 0.002% to 0.5% v/v). A media-only blank (no cells) was included for background absorbance correction, and a solvent control (0.1% DMSO, no pesticide) was used to account for any vehicle effects. All conditions were performed in five replicates. […] At DMSO concentrations ranging from 0.1% to 0.2%, the viability of all four cell lines remained stable above 80%. At a 1% DMSO concentration, the viability of all four cell types was around 50% or higher (Supplementary Figure S5). Following 24 h of exposure, 10 µL of CCK-8 reagent was added to each well. Absorbance Measurement: After an additional 1 h of incubation in the dark, the optical density (OD) at 450 nm was recorded using a microplate reader. Cell viability was calculated by comparing the OD values of treated groups with those of the blank control. Although some test concentrations exceeded the water solubility of the pesticides, the combination of DMSO and serum in the culture medium maintained a uniform exposure system. No precipitation was observed during the experiment, ensuring that the measured effects are attributed to the bioavailable fraction of the compound. […]
(§3) 1. Pesticide Exposure: After removing the medium, fresh medium containing gradient concentrations (0–2500 mg/L) of each pesticide was added (five replicates per concentration).
(§4) Following 24 h of exposure, 10 µL of CCK-8 reagent was added to each well.
(§5) 2. Absorbance Measurement: After 1 h of dark incubation, the OD at 450 nm was measured using a microplate reader.
(§6) 3. Cell Viability Calculation: Viability was determined by comparing the OD values of treated groups to the blank control. […]

CCC-HEL-1 hepatocytes [2] = details: CCC-HEL-1 cells, 24 h exposure at median lethal concentration, vs control
[3] = ref PPDB: Pesticide Properties DataBase, cited from earlier work
Rat = details: cited from earlier work
NRK renal cells = experiment: CCK-8 cytotoxicity assay, NRK; type: cell-based; details: Rattus norvegicus; CCK-8, 24 h exposure
Protocol: as §1, §2, §3, §4, §5, §6

IAR hepatocytes = experiment: CCK-8 cytotoxicity assay, IAR; type: cell-based; details: Rattus norvegicus, Hepatocyte; CCK-8, 24 h exposure
Protocol: as §1, §2, §3, §4, §5, §6

CCC-HEL-1 hepatocytes [4] = experiment: CCK-8 cytotoxicity assay, CCC-HEL-1; type: cell-based; details: Homo sapiens, Hepatocyte; CCK-8, 24 h exposure
Protocol: as §1, §2, §3, §4, §5, §6

[5] = tested on: four mammalian cell lines (CCC-HEL-1, 293T, IAR, NRK); experiment: CCK-8 cytotoxicity, statements across the four cell lines; type: cell-based, human and rat; details: CCK-8 / heatmap of OD values
Protocol: The cytotoxicity of eight pesticides on four mammalian cell lines was assessed using the Cell Counting Kit-8 (CCK-8) assay. Initially, stock solutions of each pesticide were prepared by dissolving the compound in dimethyl sulfoxide (DMSO) to a final concentration of 500 g/L. For the assay, cells were seeded into 96-well plates at a density of 2 × 10^4 cells per well in 100 µL of medium and incubated for 24 h at 37 °C under a 5% CO2 atmosphere to allow for attachment. Subsequently, the culture medium was replaced with fresh medium containing the pesticides at a series of final concentrations (0, 10, 100, 200, 400, 800, 1000, and 2500 mg/L). Pesticide working concentrations were prepared through serial dilution of the 500 g/L DMSO stock solution, resulting in variable final DMSO concentrations across treatment groups (ranging from 0.002% to 0.5% v/v). A media-only blank (no cells) was included for background absorbance correction, and a solvent control (0.1% DMSO, no pesticide) was used to account for any vehicle effects. All conditions were performed in five replicates. […] At DMSO concentrations ranging from 0.1% to 0.2%, the viability of all four cell lines remained stable above 80%. At a 1% DMSO concentration, the viability of all four cell types was around 50% or higher (Supplementary Figure S5). Following 24 h of exposure, 10 µL of CCK-8 reagent was added to each well. Absorbance Measurement: After an additional 1 h of incubation in the dark, the optical density (OD) at 450 nm was recorded using a microplate reader. Cell viability was calculated by comparing the OD values of treated groups with those of the blank control. Although some test concentrations exceeded the water solubility of the pesticides, the combination of DMSO and serum in the culture medium maintained a uniform exposure system. No precipitation was observed during the experiment, ensuring that the measured effects are attributed to the bioavailable fraction of the compound.

MRP2 in 293T renal cells = experiment: MRP2 immunofluorescence staining, 293T; type: cell-based, human; details: 293T cells, 24 h at IC50, immunofluorescence, vs untreated controls
Protocol: Cells were seeded at a density of 1 × 10^5 cells per well in immunofluorescence-specific glass-bottom dishes and allowed to adhere for 24 h. […] Following treatment, cells were fixed with 4% paraformaldehyde for 15 min at room temperature and permeabilized with 0.1% Triton X-100 for 10 min. Non-specific binding was blocked with 5% bovine serum albumin (BSA) for 1 h at room temperature. Cells were then incubated with primary antibody against MRP2 (1:300 dilution) overnight at 4 °C. After three washes with PBS, cells were treated with secondary antibody (rabbit anti-IgG, 1:600 dilution) for 1 h at room temperature and washed three times with PBS. Anti-MRP2 antibody (Abcam, ab172630) and Alexa Fluor® 488-conjugated anti-rabbit IgG secondary antibody (Cell Signaling Technology, Danvers, MA, USA, 4412) were used for immunofluorescence staining. Nuclei were counterstained with DAPI Staining Solution (C1005, 10 mL) (Beyotime Biotechnology, Shanghai, China). Fluorescent images were captured using a 10× inverted fluorescence microscope. Quantitative analysis of fluorescence intensity was performed using ImageJ software 2.1.0 (National Institutes of Health, Bethesda, MD, USA).

293T renal cells [6] = experiment: ELISA of toxicity biomarkers (LDH, KIM-1) in culture supernatant, 293T; type: cell-based, human; details: 293T cells, 24 h exposure at median lethal concentration, vs control
Protocol: The levels of hepatotoxicity biomarkers (ALT, AST, ALP) and nephrotoxicity biomarkers (KIM-1, LDH) in cell culture supernatant were quantified using commercially available ELISA kits (Cloud-Clone Corp., Wuhan, China). 100 μL of the supernatant was added to the pre-coated wells and incubated according to the manufacturer’s protocol (five replicates). After washing, the appropriate detection antibody and substrate were added, and the absorbance was measured at 450 nm using microplate reader. The concentrations of the biomarkers were determined based on standard curves.

Colinus virginianus = details: in vivo; cited from earlier work
[7] = cited from earlier work
[8] = Rat, ref PPDB: Pesticide Properties DataBase
[9] = cell lines as stated in the sentence

N#Cc1c(Cl)c(Cl)c(Cl)c(C#N)c1Cl [Chlorothalonil, chlorothalonil]
293T IC50 (293T renal cells [1]): 32.6 µg/mL
IC50 (293T renal cells [1]): 32.5 µg/mL
AST level (CCC-HEL-1 hepatocytes [2]): marked suppression
ADI - Acceptable Daily Intake ([3]; Rat SF=100): 0.015 mg kg⁻¹ bw day⁻¹
Mammals - Acute oral LD50 (Rat; [8]): > 5000 mg/kg
IC50 (NRK renal cells): 55.6 µg/mL
IC50 (IAR hepatocytes): 21.3 µg/mL
IC50 (CCC-HEL-1 hepatocytes [4]): 48.1 µg/mL
cytotoxicity (in words) [5, 9]: relatively lower cytotoxicity at specific concentrations
cytotoxicity (in words) ([5]; cell lines as stated in the sentence, listed as chlorothalonil): strongest cytotoxicity; also recorded: most cytotoxic agent

CCOP(=S)(OCC)Oc1nc(Cl)c(Cl)cc1Cl [Chlorpyrifos, chlorpyrifos]
IC50 (293T renal cells [1]): 444 µg/mL
AST level (CCC-HEL-1 hepatocytes [2]): marked suppression
LDH level (CCC-HEL-1 hepatocytes [2]): most dramatic LDH elevation
MRP2 protein level (MRP2 in 293T renal cells): most pronounced effect; also recorded: most pronounced downregulation
ADI - Acceptable Daily Intake ([3]; Rat SF=100): 0.001 mg kg⁻¹ bw day⁻¹
Mammals - Acute oral LD50 (Rat; [8]): 66 mg/kg
IC50 (NRK renal cells): 990 µg/mL
IC50 (IAR hepatocytes): 898 µg/mL
IC50 (CCC-HEL-1 hepatocytes [4]): 633 µg/mL
cytotoxicity (in words) [5]: lowest toxicity; also recorded: minimal direct cytotoxicity
KIM-1 expression (293T renal cells [6]): significantly decreased; also recorded: statistically significant downregulation

CC1COC(Cn2cncn2)(c2ccc(Oc3ccc(Cl)cc3)cc2Cl)O1 (stereo not shown) [Difenoconazole, difenoconazole]
IC50 (293T renal cells [1]): 209 µg/mL
ALT level (CCC-HEL-1 hepatocytes [2]): reduced ALT activity
AST level (CCC-HEL-1 hepatocytes [2]): increased levels
AST level (CCC-HEL-1 hepatocytes [2]; listed as difenoconazole): elevated AST levels
ADI - Acceptable Daily Intake ([3]; Rat SF=100): 0.01 mg kg⁻¹ bw day⁻¹
IC50 (NRK renal cells): 498 µg/mL
IC50 (IAR hepatocytes): 132 µg/mL
IC50 (CCC-HEL-1 hepatocytes [4]): 374 µg/mL
cytotoxicity (in words) [5, 9]: strong cytotoxic effects
KIM-1 expression (293T renal cells [6]): significantly decreased

CCCCC(C#N)(Cn1cncn1)c1ccc(Cl)cc1 (stereo not shown) [Myclobutanil, myclobutanil]
IC50 (293T renal cells [1]): 458 µg/mL
LDH level (CCC-HEL-1 hepatocytes [2]): LDH elevation
MRP2 protein level (MRP2 in 293T renal cells): most pronounced effect
Birds - Acute LD50 (Colinus virginianus): 510 mg/kg
ADI - Acceptable Daily Intake ([3]; Rat SF=100): 0.025 mg kg⁻¹ bw day⁻¹
Mammals - Acute oral LD50 (Rat; rat, in vivo, po): 1600 mg/kg
IC50 (NRK renal cells): 588 µg/mL
IC50 (IAR hepatocytes): 567 µg/mL
IC50 (CCC-HEL-1 hepatocytes [4]): 455 µg/mL
cytotoxicity (in words) [5, 9]: strong cytotoxic effects
Toxicokinetic Parameter (Concentration), mean ([7]; parent compound, ref [1] (Ding et al. 2023, ref 74)): 38.3 ng/g creatinine
LDH release (293T renal cells [6]): significantly elevated LDH release

Cc1cc(C)nc(Nc2ccccc2)n1 [Pyrimethanil, pyrimethanil]
IC50 (293T renal cells [1]): 111 µg/mL
ALP level (CCC-HEL-1 hepatocytes [2]): isolated ALP elevation
ALT level (CCC-HEL-1 hepatocytes [2]): normal ALT levels
LDH level (CCC-HEL-1 hepatocytes [2]): LDH elevation
ALP level (CCC-HEL-1 hepatocytes [2]; listed as pyrimethanil): substantial increases
ADI - Acceptable Daily Intake ([3]; Rat SF=100): 0.17 mg kg⁻¹ bw day⁻¹
Mammals - Acute oral LD50 (Rat; [8]): 4150 mg/kg
IC50 (NRK renal cells): 192 µg/mL
IC50 (IAR hepatocytes): 362 µg/mL
IC50 (CCC-HEL-1 hepatocytes [4]): 505 µg/mL
LDH release (293T renal cells [6]): significantly elevated LDH release
LDH release (293T renal cells [6]; listed as pyrimethanil): significantly increased

Oc1nc(Cl)c(Cl)cc1Cl [TCPy, 3,5,6-Trichloro-2-pyridinol]
Toxicokinetic Parameter (Concentration), highest level ([7]; metabolite of chlorpyrifos, ref [3] (Huen et al. 2012, ref 76)): 6.27 ng/mL

CC(C)(C)C(O)(CCc1ccc(Cl)cc1)Cn1cncn1 (stereo not shown) [Tebuconazole, tebuconazole]
IC50 (293T renal cells [1]): 41.5 µg/mL
ALP level (CCC-HEL-1 hepatocytes [2]): concurrent elevations of both ALT and ALP
LDH level (CCC-HEL-1 hepatocytes [2]): LDH elevation
ALP level (CCC-HEL-1 hepatocytes [2]; listed as tebuconazole): substantial increases
Birds - Acute LD50 (Colinus virginianus): 1988
ADI - Acceptable Daily Intake ([3]; Dog SF=100): 0.03 mg kg⁻¹ bw day⁻¹
Mammals - Acute oral LD50 (Rat; rat, in vivo, po): 1700
IC50 (NRK renal cells): 171 µg/mL
IC50 (IAR hepatocytes): 188 µg/mL
IC50 (CCC-HEL-1 hepatocytes [4]): 135 µg/mL
cytotoxicity (in words) [5, 9]: relatively lower cytotoxicity at specific concentrations

CC(C)(C)C(=O)C(Oc1ccc(Cl)cc1)n1cncn1 (stereo not shown) [Triadimefon, triadimefon]
IC50 (293T renal cells [1]): 107 µg/mL
ADI - Acceptable Daily Intake ([3]; basis species not given): 0.03 mg kg⁻¹ bw day⁻¹
IC50 (NRK renal cells): 977 µg/mL
IC50 (IAR hepatocytes): 878 µg/mL
IC50 (CCC-HEL-1 hepatocytes [4]): 219 µg/mL
cytotoxicity (in words) [5, 9]: strong cytotoxic effects
